From US11986493B2 (University of Pittsburgh—Of the Commonwealth System of …, priority 2013, dated 2024)

Test system: subjects with pulmonary hypertension
Assay: Oxygen saturation by pulse oximeter and methemoglobin by continuous percutaneous co-oximetry
Type: in vivo, human
Method: Oxygen saturation measured by pulse oximeter and methemoglobin levels monitored by continuous percutaneous co-oximetry prior to dose administration and through 4 hours post-dose were monitored closely.

[1] = Patient 1, nitrite 45 mg inhaled, 15 min
[2] = Patient 1, nitrite 45 mg inhaled, 30 min
[3] = Patient 1, nitrite 45 mg inhaled, 45 min
[4] = Patient 1, nitrite 45 mg inhaled, 60 min
[5] = Patient 1, nitrite 90 mg inhaled, 15 min
[6] = Patient 1, nitrite 90 mg inhaled, 30 min
[7] = Patient 1, nitrite 90 mg inhaled, 45 min
[8] = Patient 1, nitrite 90 mg inhaled, 60 min
[9] = Patient 2, nitrite 45 mg inhaled, 15 min
[10] = Patient 2, nitrite 45 mg inhaled, 30 min
[11] = Patient 2, nitrite 45 mg inhaled, 45 min
[12] = Patient 2, nitrite 45 mg inhaled, 60 min
[13] = Patient 2, nitrite 90 mg inhaled, 15 min
[14] = Patient 2, nitrite 90 mg inhaled, 30 min
[15] = Patient 2, nitrite 90 mg inhaled, 45 min
[16] = Patient 2, nitrite 90 mg inhaled, 60 min
[17] = Patient 3, nitrite 45 mg inhaled, 15 min
[18] = Patient 3, nitrite 45 mg inhaled, 30 min
[19] = Patient 3, nitrite 45 mg inhaled, 45 min
[20] = Patient 3, nitrite 45 mg inhaled, 60 min
[21] = Patient 3, nitrite 90 mg inhaled, 15 min
[22] = Patient 3, nitrite 90 mg inhaled, 30 min
[23] = Patient 3, nitrite 90 mg inhaled, 45 min
[24] = Patient 3, nitrite 90 mg inhaled, 60 min
[25] = Patient 4, nitrite 45 mg inhaled, 15 min
[26] = Patient 4, nitrite 45 mg inhaled, 30 min
[27] = Patient 4, nitrite 45 mg inhaled, 45 min
[28] = Patient 4, nitrite 45 mg inhaled, 60 min
[29] = Patient 4, nitrite 90 mg inhaled, 15 min
[30] = Patient 4, nitrite 90 mg inhaled, 30 min
[31] = Patient 4, nitrite 90 mg inhaled, 45 min
[32] = Patient 4, nitrite 90 mg inhaled, 60 min
[33] = Patient 5, nitrite 45 mg inhaled, 15 min
[34] = Patient 5, nitrite 45 mg inhaled, 30 min
[35] = Patient 5, nitrite 45 mg inhaled, 45 min
[36] = Patient 5, nitrite 45 mg inhaled, 60 min
[37] = Patient 5, nitrite 90 mg inhaled, 15 min
[38] = Patient 5, nitrite 90 mg inhaled, 30 min
[39] = Patient 5, nitrite 90 mg inhaled, 45 min
[40] = Patient 5, nitrite 90 mg inhaled, 60 min

## O=NO [nitrite, sodium nitrite]
[1]
  Syst O2sat: 95
  metHgB: 1.1
[2]
  Syst O2sat: 100
  metHgB: 1.1
[3]
  Syst O2sat: 92
  metHgB: 1.3
[4]
  Syst O2sat: 92
  metHgB: 1.5
[5]
  Syst O2sat: 95
  metHgB: 1.4
[6]
  Syst O2sat: 94
  metHgB: 1.3
[7]
  Syst O2sat: 94
  metHgB: 1.2
[8]
  Syst O2sat: 94
  metHgB: 1.4
[9]
  Syst O2sat: 98
  metHgB: 1
[10]
  Syst O2sat: 99
  metHgB: 1
[11]
  Syst O2sat: 99
  metHgB: 1
[12]
  Syst O2sat: 99
  metHgB: 1
[13]
  Syst O2sat: 96
  metHgB: 1.4
[14]
  Syst O2sat: 98
  metHgB: 1.7
[15]
  Syst O2sat: 98
  metHgB: 1.7
[16]
  Syst O2sat: 100
  metHgB: 1.6
[17]
  Syst O2sat: 92
  metHgB: 1.1
[18]
  Syst O2sat: 94
  metHgB: 1.3
[19]
  Syst O2sat: 93
  metHgB: 1.5
[20]
  Syst O2sat: 94
  metHgB: 1.5
[21]
  Syst O2sat: 97
  metHgB: 1.7
[22]
  Syst O2sat: 95
  metHgB: 1.7
[23]
  Syst O2sat: 95
  metHgB: 1.6
[24]
  Syst O2sat: 95
  metHgB: 1.5
[25]
  Syst O2sat: 98
  metHgB: 1.3
[26]
  Syst O2sat: 98
  metHgB: 1.1
[27]
  Syst O2sat: 99
  metHgB: 1
[28]
  Syst O2sat: 97
  metHgB: 0.8
[29]
  Syst O2sat: 97
  metHgB: 1.7
[30]
  Syst O2sat: 97
  metHgB: 2
[31]
  Syst O2sat: 96
  metHgB: 1.2
[32]
  Syst O2sat: 96
  metHgB: 1.2
[33]
  Syst O2sat: 94
  metHgB: 1.1
[34]
  Syst O2sat: 98
  metHgB: 0.8
[35]
  Syst O2sat: 97
  metHgB: 0.7
[36]
  Syst O2sat: 94
  metHgB: 0.8
[37]
  Syst O2sat: 95
  metHgB: 0.9
[38]
  Syst O2sat: 97
  metHgB: 0.7
[39]
  Syst O2sat: 98
  metHgB: 0.7
[40]
  Syst O2sat: 97
  metHgB: 0.5
Patient 6, nitrite 45, 15 min
  Syst O2sat: 95
  metHgB: 1.1
Patient 6, nitrite 45, 30 min
  Syst O2sat: 99
  metHgB: 1.3
Patient 6, nitrite 45, 45 min
  Syst O2sat: 96
  metHgB: 1.3
Patient 6, nitrite 45, 60 min
  Syst O2sat: 96
  metHgB: 1.2
Patient 6, nitrite 90, 15 min
  Syst O2sat: 95
  metHgB: 1.9
Patient 6, nitrite 90, 30 min
  Syst O2sat: 95
  metHgB: 1.9
Patient 6, nitrite 90, 45 min
  Syst O2sat: 96
  metHgB: 1.7
Patient 6, nitrite 90, 60 min
  Syst O2sat: 95
  metHgB: 1.7
At the doses tested (45 mg and 90 mg inhaled)
  methemoglobin: does not significantly affect
